# From patent publication US7488823B2, “Cyanoguanidines and cyanoamidines as ErbB2 and EGFR inhibitors” (Array Biopharma, Inc., priority 2003, dated 2009)
# Target: ErbB2 (Homo sapiens, UniProt P04626)
# Assay: ErbB kinase ELISA on poly-Glu-Tyr 4:1 coated microtiter plates
# Assay type: biochemical
# Conditions: PGT substrate, ATP, baculovirus ErbB2, 30 minutes at room temperature, optical density at 450 nm
# Protocol: The extent to which the compounds of the present invention modulate ErbB kinase activity can be determined using the following enzyme-linked immunosorbent assay (ELISA), which employs a microtiter plate coated with a protein tyrosine kinase specific polymer substrate. The phosphorylation reaction is performed on poly-Glu-Tyr 4:1 (PGT) coated microtiter plates in the presence on Mg^++, ATP and EGFR. The phosphorylated polymer substrate is detected with a phosphotyrosine specific monoclonal antibody conjugated to horseradish peroxidase (HRP). Chromogenic substrate (TMB) color is quantitiated by spectrophotometry.
# The assay is performed in a 96-well microtiter plate (Immunlon 4, available from Dynex). To prepare the plate, 100 μL of 0.25 mg/mL Poly (Glu,Tyr) 4:1 Sodium Salt (available from Sigma, Catalog Number P0275) in phosphate buffered saline (PBS) is added to each well and the plates are sealed. Following incubation overnight at ambient temperature, this coating solution is removed and the plates are washed three times with 300 μL of 0.1% Tween 20 (available from Sigma, Catalog Number P2287) in PBS. If not using immediately, the coated microtiter plates may be stored at 2-8° C. with 150 μL of 0.1% Tween 20 in PBS in each well.
# The compound to be tested is dissolved in DMSO at an initial concentration of 1.0 mM. This initial concentration is diluted 1:25 in DMSO, and the resulting solution is further serially diluted 1:5 eight times in DMSO. To 10 μL of the initial concentration and each dilution are added 240 μL Reaction Buffer (50 mM HEPES, 125 mM NaCl, 24 mM MgCl2, 0.1 mM Na3VO4 (boiled at pH 10 until colorless—approximately 10 minutes—and cooled prior to use), pH 7.3, filtered through a 0.2 micron filter). 25 μL of each compound solution (4% DMSO in Reaction Buffer for control) is placed in a separate microtiter plate well, along with 50 μL Reaction Buffer +ATP (15 μL 10 of mM ATP added to 5 mL Reaction Buffer) and 25 μL Reaction Buffer into which a catalytic amount of baculovirus ErbB2 has been added. The plate is then covered and incubated for 30 minutes at room temperature, after which time all liquid is aspirated from each well. The plate is washed three times with 300 μL of 0.1% Tween in PBS. Residual wash solution is removed by inverting the plate and blotting on a paper towel.
# To each well is then added 100 μL of PBS containing 3% bovine serum albumin (protease-free, IgG-free, Jackson Catalog Number 001-000-162), 0.05% Tween 20 and 0.2 μg/mL anti-phosphotyrosine horseradisn peroxidase (available from Zymed, Laboratories, Inc., Catalog Number 03-7720). The plate is covered and incubated for 30 minutes at room temperature, after which time all liquid is aspirated from each well. The plate is washed three times with 300 μL of 0.1% Tween in PBS. Residual wash solution is removed by inverting the plate and blotting on a paper towel. To each well is then added 100 μL of TMB peroxidase substrate system (KPL Catalog Number 50-76-00), and the plate is allowed to incubate for 25 minutes at room temperature, at which time the reaction is stopped by the addition of 100 μL of 1M phosphoric acid to each well. The plate is tapped gently to ensure mixing.
# Within about thirty minutes after the reaction is stopped, the optical density at 450 nm of each well is determined using a microtiter plate reader. A dose response curve is generated by plotting optical density versus compound concentration. IC50 is calculated from this curve using methods known in the art.
# Chain of ErbB2 (P04626 23-1255): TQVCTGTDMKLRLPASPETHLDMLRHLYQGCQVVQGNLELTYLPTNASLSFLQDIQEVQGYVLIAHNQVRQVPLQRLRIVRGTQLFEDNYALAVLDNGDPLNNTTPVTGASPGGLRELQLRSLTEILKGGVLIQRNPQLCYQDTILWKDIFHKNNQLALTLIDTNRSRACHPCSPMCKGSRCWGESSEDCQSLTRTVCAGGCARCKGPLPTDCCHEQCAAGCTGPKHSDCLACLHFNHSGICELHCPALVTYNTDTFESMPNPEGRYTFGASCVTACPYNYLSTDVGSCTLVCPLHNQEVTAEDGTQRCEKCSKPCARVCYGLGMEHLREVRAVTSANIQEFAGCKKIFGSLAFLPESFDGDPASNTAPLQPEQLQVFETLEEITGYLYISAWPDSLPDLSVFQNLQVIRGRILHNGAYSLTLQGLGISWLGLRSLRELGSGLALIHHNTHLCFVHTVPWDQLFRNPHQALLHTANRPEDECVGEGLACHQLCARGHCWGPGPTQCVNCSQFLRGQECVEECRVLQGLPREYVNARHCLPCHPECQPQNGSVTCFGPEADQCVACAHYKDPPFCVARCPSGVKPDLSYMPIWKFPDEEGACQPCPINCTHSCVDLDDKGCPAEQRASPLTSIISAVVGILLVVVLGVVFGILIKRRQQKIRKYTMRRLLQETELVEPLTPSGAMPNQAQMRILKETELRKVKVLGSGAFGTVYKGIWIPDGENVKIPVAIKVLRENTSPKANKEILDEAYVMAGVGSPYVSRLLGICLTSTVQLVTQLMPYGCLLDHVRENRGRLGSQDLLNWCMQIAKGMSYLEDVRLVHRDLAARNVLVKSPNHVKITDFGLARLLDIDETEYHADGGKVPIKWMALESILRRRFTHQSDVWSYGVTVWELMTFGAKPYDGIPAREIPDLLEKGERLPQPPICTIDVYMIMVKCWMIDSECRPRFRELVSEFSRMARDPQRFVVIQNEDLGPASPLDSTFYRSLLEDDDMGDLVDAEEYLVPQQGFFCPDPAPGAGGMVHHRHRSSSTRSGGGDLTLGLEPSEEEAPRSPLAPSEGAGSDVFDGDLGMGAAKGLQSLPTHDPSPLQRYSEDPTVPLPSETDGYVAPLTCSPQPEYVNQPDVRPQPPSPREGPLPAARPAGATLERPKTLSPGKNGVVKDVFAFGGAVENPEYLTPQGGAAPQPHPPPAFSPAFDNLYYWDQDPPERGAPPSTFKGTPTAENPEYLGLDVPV
row,Compound,IC50 [nM]
1,"Cc1ccc(Oc2ccc(Nc3ncnc4ccc(C#CCN/C(N)=N/C#N)cc34)cc2C)cn1 [Example 3, N-cyano-N′-(3-{4-[3-Methyl-4-(6-methyl-pyridin-3-yloxy)-phenylamino]-quinazolin-6-yl}-prop-2-ynyl)guanidine]",8
2,"N#C/N=C(\NCc1ccc(-c2ccc3ncnc(Nc4ccc(OCc5cccc(F)c5)c(Cl)c4)c3c2)o1)N1CCOCC1 [Example 4, N-(5-{4-[3-Chloro-4-(3-fluoro-benzyloxy)-phenylamino]-quinazolin-6-yl}-furan-2-ylmethyl)-N′-cyano-morpholine-4-carboxamidine]",13
3,"Cc1ccc(Oc2ccc(Nc3ncnc4ccc(-c5csc(CN/C(N)=N\C#N)n5)cc34)cc2C)cn1 [Example 5, N-cyano-N′-(4-{4-[3-Methyl-4-(6-methyl-pyridin-3-yloxy)-phenylamino]-quinazolin-6-yl}-thiazol-2-ylmethyl)guanidine]",31
4,"COc1cc2ncnc(Nc3ccc(OCc4ccccn4)c(Cl)c3)c2cc1OCCCN/C(=N\C#N)N(C)CCN(C)C [Example 6, N-(3-{4-[3-Chloro-4-(pyridin-2-ylmethoxy)-phenylamino]-7-methoxy-quinazolin-6-yloxy}-propyl)-N′-cyano-N″-(2-dimethylamino-ethyl)-N″-methylguanidine]",14
5,"COc1cc2ncnc(Nc3ccc(OCc4ccccn4)c(Cl)c3)c2cc1OCCCN/C(=N\C#N)N(C)C [Example 7, N-(3-{4-[3-Chloro-4-(pyridin-2-ylmethoxy)-phenylamino]-7-methoxy-quinazolin-6-yloxy}-propyl)-N′-cyano-N″,N″-dimethylguanidine]",33
6,"N#C/N=C(\NCC#Cc1ccc2ncnc(Nc3ccc4c(cnn4Cc4cccc(F)c4)c3)c2c1)N1CCOCC1 [Example 9, N-cyano-N′-(3-{4-[1-(3-Fluoro-benzyl)-1 H-indazol-5-ylamino]-quinazolin-6-yl}-prop-2-ynyl)-morpholine-4-carboxamidine]",12
7,"COCCN(C)/C(=N/C#N)NC/C=C/c1ccc2ncnc(Nc3ccc4c(cnn4Cc4cccc(F)c4)c3)c2c1 [Example 10, N-cyano-N′-(3-{4-[1-(3-Fluoro-benzyl)-1H-indazol-5-ylamino]-quinazolin-6-yl}-allyl)-N″-(2-methoxy-ethyl)-N″-methylguanidine]",17

# Continued, values first:
row,IC50 [nM],Compound
1,85,"CN(C)/C(=N\C#N)NCC#Cc1ccc2ncnc(Nc3ccc(OCc4cccc(F)c4)c(Cl)c3)c2c1 [Example 1, N-(3-{4-[3-Chloro-4-(3-fluoro-benzyloxy)-phenylamino]-quinazolin-6-yl}-prop-2-ynyl)-N′-cyano-N″,N″-dimethylguanidine]"
2,410,"N#C/N=C(/NCC#Cc1ccc2ncnc(Nc3ccc(OCc4cccc(F)c4)c(Cl)c3)c2c1)NCCO [Example 2, N-(3-{4-[3-Chloro-4-(3-fluoro-benzyloxy)-phenylamino]-quinazolin-6-yl}-prop-2-ynyl)-N′-cyano-N″-3-(2-hydroxy-ethyl)guanidine]"
3,40,"CN/C(=N/C#N)NCCCOc1cc2c(Nc3ccc(OCc4cccc(F)c4)c(Cl)c3)ncnc2cc1OC [Example 8, N-(3-{4-[3-Chloro-4-(3-fluoro-benzyloxy)-phenylamino]-7-methoxy-quinazolin-6-yloxy}-propyl) -N′-cyano-N″-methylguanidine]"
